Data reported in patent US20240025887A1, “THIENYL AND CYCLOALKYL AMINOPYRIMIDINE COMPOUNDS AS INHIBITORS OF NUAK KINASES, COMPOSITIONS AND USES THEREOF” (Ontario Institute for Cancer Research (OICR), priority 2021, published 2024).

What was measured:
[1] = biological target: T1, NUAK2 (h) (Homo sapiens, UniProt Q9H093); assay: NUAK2 enzymatic assay (radiometric, Eurofins); type: biochemical; conditions: for IC50: radiometric, full-length recombinant enzyme; for AUR-A (IC50, nM)/NUAK2 (IC50, nM): NUAK2 selectivity over Aurora-A, ratio of IC50s
T1 construct: This assay was done radiometrically using full-length, recombinant enzyme; purchased Eurofins
T1 sequence (Q9H093 1-628): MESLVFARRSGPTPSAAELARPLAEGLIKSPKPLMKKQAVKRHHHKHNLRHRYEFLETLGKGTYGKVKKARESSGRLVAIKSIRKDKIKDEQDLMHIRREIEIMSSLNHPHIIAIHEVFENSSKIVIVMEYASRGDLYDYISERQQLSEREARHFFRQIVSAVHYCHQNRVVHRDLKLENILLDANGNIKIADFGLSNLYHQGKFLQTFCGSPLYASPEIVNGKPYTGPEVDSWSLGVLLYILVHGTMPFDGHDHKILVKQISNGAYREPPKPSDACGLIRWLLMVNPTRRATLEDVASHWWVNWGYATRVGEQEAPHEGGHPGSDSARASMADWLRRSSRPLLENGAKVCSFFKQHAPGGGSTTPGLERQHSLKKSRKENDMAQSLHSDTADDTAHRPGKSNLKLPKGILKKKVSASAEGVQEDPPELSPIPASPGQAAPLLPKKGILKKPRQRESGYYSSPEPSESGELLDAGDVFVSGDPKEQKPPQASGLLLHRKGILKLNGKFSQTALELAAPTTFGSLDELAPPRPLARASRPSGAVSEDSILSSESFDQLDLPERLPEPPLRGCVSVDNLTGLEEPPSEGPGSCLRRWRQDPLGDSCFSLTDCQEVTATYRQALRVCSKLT
In short: (§1)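 Radiometric assay with full-length recombinant NUAK2 in 8 mM MOPS pH 7.0, 0.2 mM EDTA, 10 mM magnesium acetate, 300 μM peptide substrate and [33P]-ATP, 40 min at room temperature. Phosphoric acid stop, filter capture, scintillation counting. Aurora A and NUAK1 used as counter screens.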

[2] = biological target: T2, NUAK1 (Homo sapiens, UniProt O60285); assay: NUAK1 counter screen; type: biochemical
T2 sequence (O60285 1-661): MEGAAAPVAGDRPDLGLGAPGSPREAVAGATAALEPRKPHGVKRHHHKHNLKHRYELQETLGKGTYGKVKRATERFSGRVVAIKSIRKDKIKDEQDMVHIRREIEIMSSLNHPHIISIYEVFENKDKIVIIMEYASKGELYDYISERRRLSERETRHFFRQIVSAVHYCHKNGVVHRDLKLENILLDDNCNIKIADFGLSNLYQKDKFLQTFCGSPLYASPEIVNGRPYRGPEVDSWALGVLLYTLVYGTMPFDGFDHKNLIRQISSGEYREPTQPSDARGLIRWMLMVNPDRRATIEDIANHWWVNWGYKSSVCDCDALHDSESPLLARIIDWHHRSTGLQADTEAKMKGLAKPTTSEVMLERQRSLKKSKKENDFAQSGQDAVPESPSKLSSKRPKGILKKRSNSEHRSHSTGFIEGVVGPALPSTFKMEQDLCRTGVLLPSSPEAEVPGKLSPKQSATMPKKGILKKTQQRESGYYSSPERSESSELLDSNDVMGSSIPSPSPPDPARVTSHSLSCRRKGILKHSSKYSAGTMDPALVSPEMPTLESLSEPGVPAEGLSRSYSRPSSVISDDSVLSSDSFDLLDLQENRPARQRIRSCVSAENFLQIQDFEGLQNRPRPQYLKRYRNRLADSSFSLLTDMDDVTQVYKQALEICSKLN
In short: as §1

[3] = biological target: T3, Aurora A (Homo sapiens, UniProt O14965); assay: Aurora A counter screen; type: biochemical; conditions: read-out: AUR-A (IC50)
T3 sequence (O14965 1-403): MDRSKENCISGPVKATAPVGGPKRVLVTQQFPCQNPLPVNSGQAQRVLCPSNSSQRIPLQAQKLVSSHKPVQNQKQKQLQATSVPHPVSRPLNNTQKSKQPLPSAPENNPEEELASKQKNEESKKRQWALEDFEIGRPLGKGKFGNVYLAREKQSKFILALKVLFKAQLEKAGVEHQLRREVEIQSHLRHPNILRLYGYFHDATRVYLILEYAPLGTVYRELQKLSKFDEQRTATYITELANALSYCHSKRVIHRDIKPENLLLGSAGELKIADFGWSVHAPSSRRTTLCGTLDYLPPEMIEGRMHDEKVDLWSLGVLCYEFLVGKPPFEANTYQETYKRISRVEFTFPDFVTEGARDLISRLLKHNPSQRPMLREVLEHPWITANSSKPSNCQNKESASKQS
In short: as §1

[4] = test system: MDA-MB-231 cells; assay: Tumor cell growth inhibition assay (ATPlite); type: cell-based; conditions: Homo sapiens, 120 h, MDA-MB-231 breast tumor cell line, 5 days
Experimental: MDA-MB-231 cells were seeded into a 384-well plate at 1,000 cells/well in 50 μl medium (Alpha-MEM containing 10% FBS, […] Normocin, Invivogen and […] Gentamycin, Invitrogen). Plates were then incubated overnight for the cells to attach. An HP D300 digital dispenser was used to dose cells with DMSO or test compounds across a 16-point range of concentrations (high dose of 10 uM to low dose of 5 nM). Plates were incubated in a humidified 5% CO2 incubator at 37° C. After 5 days, plates were removed from the incubator and equilibrated to room temperature. An equal volume of ATPlite assay reagent was then added to each well, and samples processed according to manufacturer's instructions (Perkin Elmer). Luminescent signals were then measured using an Envision plate reader equipped with a US-Luminescence detector.

[5] = test system: YAP/TAZ nuclear localization in several cancer cell lines; conditions: IF confocal microscopy; cited from earlier work
[6] = test system: YAP/TAZ transcriptional function in several cancer cell lines; conditions: PCR; cited from earlier work

SMILES	IC50 [1]	IC50 [2]	IC50 [3]	IC50 [4]	AUR-A (IC50, nM)/NUAK2 (IC50, nM) [1]	YAP/TAZ nuclear localization [5]	YAP/TAZ transcriptional function (target gene expression) [6]
CN1C2CCC1CN(c1ccc(Nc3ncc(Cl)c(Nc4ccsc4C(N)=O)n3)c(OC(F)F)c1)C2 [Compound I-30, 3-((5-chloro-2-((2-(difluoromethoxy)-4-(8-methyl-3,8-diazabicyclo[3.2.1]octan-3-yl)phenyl)amino)pyrimidin-4-yl)amino)thiophene-2-carboxamide]	0.1 to 10 nM	11 to 100 nM	101 to 1000 nM	144 nM			
CN1CCN(c2ccc(Nc3ncc(C#N)c(Nc4ccsc4C(N)=O)n3)c(OC(F)F)c2)CC1 [Compound I-38, 3-((5-cyano-2-((2-(difluoromethoxy)-4-(4-methylpiperazin-1-yl)phenyl)amino)pyrimidin-4-yl)amino)thiophene-2-carboxamide]	0.1 to 10 nM	11 to 100 nM	101 to 1000 nM	120 nM			
CN1CCN(C2CCN(c3ccc(Nc4ncc(Cl)c(Nc5ccsc5C(N)=O)n4)c(OC(F)F)c3)CC2)CC1 [Compound I-41, 3-((5-chloro-2-((2-(difluoromethoxy)-4-(4-(4-methylpiperazin-1-yl)piperidin-1-yl)phenyl)amino)pyrimidin-4-yl)amino)thiophene-2-carboxamide]	11 to 100 nM	11 to 100 nM	101 to 1000 nM	202 nM	30		
CN1CCCN(C2CCN(c3ccc(Nc4ncc(C(F)(F)F)c(Nc5ccsc5C(N)=O)n4)c(OC(F)F)c3)CC2)CC1 [Compound I-75, 3-((2-((2-(difluoromethoxy)-4-(4-(4-methyl-1,4-diazepan-1-yl)piperidin-1-yl)phenyl)amino)-5-(trifluoromethyl)pyrimidin-4-yl)amino)thiophene-2-carboxamide]	0.1 to 10 nM	11 to 100 nM	101 to 1000 nM	120 nM			
CN1CCN(c2ccc(Nc3ncc4cc(C#N)c(=O)n(C5CCCC5)c4n3)cc2)CC1 [ON123300]						a block of YAP/TAZ nuclear localization	attenuates transcriptional function
CCC(=O)Nc1cccc(Oc2nc(Nc3ccc(N4CCN(C)CC4)cc3OC)ncc2Cl)c1 [WZ4003]						a block of YAP/TAZ nuclear localization	attenuates transcriptional function

Second part, led by results:

IC50 [1]	IC50 [2]	IC50 [3]	IC50 [4]	AUR-A (IC50, nM)/NUAK2 (IC50, nM) [1]	SMILES	YAP/TAZ nuclear localization [5]	YAP/TAZ transcriptional function (target gene expression) [6]
11 to 100 nM	11 to 100 nM	> 1000 nM	653 nM	86	CN1CCN(c2ccc(Nc3ncc(Cl)c(Nc4ccsc4C(N)=O)n3)c(OC(F)F)c2F)CC1 [Compound I-42, 3-((5-chloro-2-((2-(difluoromethoxy)-3-fluoro-4-(4-methylpiperazin-1-yl)phenyl)amino)pyrimidin-4-yl)amino)thiophene-2-carboxamide]		
0.1 to 10 nM	0.1 to 10 nM	11 to 100 nM	142 nM		CN1CCN(C2CCN(c3ccc(Nc4ncc(C(F)(F)F)c(Nc5ccsc5C(N)=O)n4)c(OC(F)F)c3)CC2)CC1 [Compound I-52, 3-((2-((2-(difluoromethoxy)-4-(4-(4-methylpiperazin-1-yl)piperidin-1-yl)phenyl)amino)-5-(trifluoromethyl)pyrimidin-4-yl)amino)thiophene-2-carboxamide]		
11 to 100 nM	11 to 100 nM	101 to 1000 nM	96 nM		CC(C)N1CCN(C2CCN(c3ccc(Nc4ncc(C(F)(F)F)c(Nc5ccsc5C(N)=O)n4)c(OC(F)F)c3)CC2)CC1 [Compound I-78, 3-((2-((2-(difluoromethoxy)-4-(4-(4-isopropylpiperazin-1-yl)piperidin-1-yl)phenyl)amino)-5-(trifluoromethyl)pyrimidin-4-yl)amino)thiophene-2-carboxamide]		
0.1 to 10 nM	11 to 100 nM	101 to 1000 nM	858 nM	176	CN1CCN(c2ccc(Nc3ncc(Cl)c(N[C@@H]4CCCC[C@H]4C(N)=O)n3)c(OC(F)F)c2)CC1 [Compound I-82, (1R,2R)-2-((5-chloro-2-((2-(difluoromethoxy)-4-(4-methylpiperazin-1-yl)phenyl)amino)pyrimidin-4-yl)amino)cyclohexane-1-carboxamide]		
11 to 100 nM	11 to 100 nM	> 1000 nM	932 nM		CN1CCN(C2CCN(c3ccc(Nc4ncc(Cl)c(N[C@@H]5CCCC[C@H]5C(N)=O)n4)c(OC(F)F)c3)CC2)CC1 [Compound I-87, (1R,2R)-2-((5-chloro-2-((2-(difluoromethoxy)-4-(4-(4-methylpiperazin-1-yl)piperidin-1-yl)phenyl)amino)pyrimidin-4-yl)amino)cyclohexane-1-carboxamide]		
